Counter-ions that a name gives are not always drawn. Like-named read-outs stand apart in the source and are kept apart here.
Assays:
PAMPA permeability assay = assay type: in vitro ADME; conditions: pH 7, PAMPA; for Papp at 5 h, 10 µM: pH 7, 10 μM
PDGFRβ [1] = biological target: T1, PDGFRβ (Homo sapiens (Human), UniProt P09619); assay: PDGFRβ enzyme inhibition (ADP-Glo assay); assay type: biochemical
MRC5 cells = assay: Cell viability assay in MRC5 cells (MTT)
PDGFRβ [2] = biological target: T1, PDGFRβ; assay: PDGF-BB induced phosphorylation of PDGFRβ in fibroblasts (MRC5, HTRF); assay type: cell-based; conditions: MRC5 cells, PDGFBB stimulation; read-out: PDGFBB-induced PDGFRβ phosphorylation in MRC5 cells (IC50)
[3] = Pharmacokinetic measurements in rats (i.v., i.t., oral); assay type: in vivo; conditions: rat; for concentration at 0.1 h / concentration at 1.5 h / concentration at 6 h / concentration at 24 h: male, CD, lung; for concentration at 0.1 h: read-out: lung concentration (nM) at time 0.1 h; for concentration at 1.5 h: read-out: lung concentration (nM) at time 1.5 h; for concentration at 6 h: read-out: lung concentration (nM) at time 6 h; for concentration at 24 h: read-out: lung concentration (nM) at time 24 h
[4] = mean, n = 2 (nintedanib n = 34)
[5] = i.t. dose 0.1 (nintedanib 0.42)
[6] = i.v. dose 0.1 (nintedanib 0.42)

T1 sequence (P09619 33-1106): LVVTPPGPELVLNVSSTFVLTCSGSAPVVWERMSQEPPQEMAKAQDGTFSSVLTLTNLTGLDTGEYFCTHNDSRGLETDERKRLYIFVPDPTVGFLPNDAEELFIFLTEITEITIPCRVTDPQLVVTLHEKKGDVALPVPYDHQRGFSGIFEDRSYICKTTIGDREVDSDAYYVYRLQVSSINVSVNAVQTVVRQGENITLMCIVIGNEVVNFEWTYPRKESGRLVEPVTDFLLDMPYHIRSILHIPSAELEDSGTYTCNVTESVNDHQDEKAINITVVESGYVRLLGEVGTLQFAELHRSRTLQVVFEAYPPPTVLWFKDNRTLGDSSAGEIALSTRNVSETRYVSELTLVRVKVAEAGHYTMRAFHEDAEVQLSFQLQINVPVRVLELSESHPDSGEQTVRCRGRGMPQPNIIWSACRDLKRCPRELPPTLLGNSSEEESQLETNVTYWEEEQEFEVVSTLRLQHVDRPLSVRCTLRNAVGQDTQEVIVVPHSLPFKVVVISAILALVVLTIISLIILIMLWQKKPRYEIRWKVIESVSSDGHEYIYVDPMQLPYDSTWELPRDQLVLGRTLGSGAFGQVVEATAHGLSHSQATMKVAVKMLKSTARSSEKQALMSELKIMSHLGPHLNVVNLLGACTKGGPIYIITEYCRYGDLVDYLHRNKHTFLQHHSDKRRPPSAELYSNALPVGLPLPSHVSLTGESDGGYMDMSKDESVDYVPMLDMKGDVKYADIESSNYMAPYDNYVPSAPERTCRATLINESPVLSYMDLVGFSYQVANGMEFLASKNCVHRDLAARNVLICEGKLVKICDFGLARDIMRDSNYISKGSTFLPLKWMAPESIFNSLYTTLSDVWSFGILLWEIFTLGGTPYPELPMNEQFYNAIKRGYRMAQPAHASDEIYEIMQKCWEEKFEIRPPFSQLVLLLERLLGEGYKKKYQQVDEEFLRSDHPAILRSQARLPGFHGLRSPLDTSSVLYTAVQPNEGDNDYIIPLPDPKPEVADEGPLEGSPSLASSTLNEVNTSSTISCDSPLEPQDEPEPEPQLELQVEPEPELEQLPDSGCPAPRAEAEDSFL

SMILES | recovery at 5 hr, 10 μM (PAMPA permeability assay) [%] | Papp at 5 h, 10 µM (PAMPA permeability assay) [×10⁻⁶ cm/s] | Ki (PDGFRβ [1]; [4]) [nM] | Cell viability at 100 nM (%) (MRC5 cells) | Cell viability at 300 nM (%) (MRC5 cells) | Cell viability at 1000 nM (%) (MRC5 cells) | IC50 (PDGFRβ [2]) [nM] | other results
COC(=O)c1cc2c(cc1C)/C(=C(/Nc1ccc(C(=O)N3CCN(C)CC3)cc1)c1ccccc1)C(=O)N2 [Example 17, (Z)-Methyl 5-methyl-3-(((4-(4-methylpiperazine-1-carbonyl)phenyl)amino)(phenyl)methylene)-2-oxoindoline-6-carboxylate] | 59.8 | 24.6 | 9.39 | 76.2 | 63.6 | 34.1 | 4.48 | 
COC(=O)c1cc2c(cc1C)/C(=C(/Nc1ccc(S(=O)(=O)NCCN(C)C)cc1)c1ccccc1)C(=O)N2 [Example 25, (Z)-Methyl 3-(((4-(N-(2-(dimethylamino)ethyl)sulfamoyl)phenyl)amino)(phenyl)methylene)-5-methyl-2-oxoindoline-6-carboxylate, formate] | 105 | 11 | 11.7 | 83.2 | 74.7 | 55.4 | 24.2 | 
COCCN1CCC(NC(=O)c2ccc(N/C(=C3\C(=O)Nc4cc(C(=O)OC)c(C)cc43)c3ccccc3)cc2)CC1 [Example 20, (Z)-Methyl 3-(((4-((1-(2-methoxyethyl)piperidin-4-yl)carbamoyl)phenyl)amino)(phenyl)methylene)-5-methyl-2-oxoindoline-6-carboxylate] | 104 | 0.0165 | 19.1 | 92.6 | 91.7 | 87.2 | 38.9 | 
COC(=O)c1cc2c(cc1C)/C(=C(/Nc1ccc(C(=O)N3CCC(O)(CN4CCOCC4)CC3)cc1)c1ccccc1)C(=O)N2 [Example 45, (Z)-Methyl-3-(((4-(4-hydroxy-4-(morpholinomethyl)piperidine-1-carbonyl)phenyl)amino)(phenyl)methylene)-5-methyl-2-oxoindoline-6-carboxylate] | 77 | 0.0893 | 15.1 | 80.1 | 71.7 | 62.8 | 2.42 | 
COC(=O)c1cc2c(cc1C)/C(=C(/Nc1ccc(C(=O)NCCN3CCN(S(C)(=O)=O)CC3)cc1)c1ccccc1)C(=O)N2 [Example 44, (Z)-Methyl-5-methyl-3-(((4-((2-(4-(methylsulfonyl)piperazin-1-yl)ethyl)carbamoyl)phenyl)amino)(phenyl)methylene)-2-oxoindoline-6-carboxylate] | 71.7 | 0.00879 | 17.8 | 98.4 | 78.4 | 60.4 | 3.33 | 
COC(=O)c1cc2c(cc1C)/C(=C(/Nc1ccc(C(=O)N3CCC(C(=O)NCCN(C)C)CC3)cc1)c1ccccc1)C(=O)N2 [Example 31, (Z)-Methyl 3-(((4-(4-((2-(dimethylamino)ethyl)carbamoyl)piperidine-1-carbonyl)phenyl)amino)(phenyl)methylene)-5-methyl-2-oxoindoline-6-carboxylate, 0.4 formate] | 66.2 | 0.00531 | 4.83 | 69.3 | 47.3 | 34.3 | 5.52 | 
COC(=O)c1cc2c(cc1C)/C(=C(/Nc1ccc(C(=O)NCCCN3CCN(C)CC3)cc1)c1ccccc1)C(=O)N2 [Example 21, (Z)-Methyl-5-methyl-3-(((4-((3-(4-methylpiperazin-1-yl)propyl)carbamoyl)phenyl)amino)(phenyl)methylene)-2-oxoindoline-6-carboxylate, formate] | 76 | 0.0442 | 6.11 | 139.6 | 127.3 | 98.8 | 35.1 | 
COC(=O)c1cc2c(cc1C)/C(=C(/Nc1ccc(C(=O)N[C@H]3CCCN(C)C3)cc1)c1ccccc1)C(=O)N2 [Example 27, (S,Z)-Methyl 5-methyl-3-(((4-((1-methylpiperidin-3-yl)carbamoyl)phenyl)amino)(phenyl)methylene)-2-oxoindoline-6-carboxylate, 0.5 formate] | 54.3 | 16.8 | 18 | 106.5 | 112.6 | 82.9 | 43 | 
COC(=O)c1cc2c(cc1C)/C(=C(/Nc1ccc(S(=O)(=O)N3CCN(CCO)CC3)cc1)c1ccccc1)C(=O)N2 [Example 26, (Z)-Methyl 3-(((4-((4-(2-hydroxyethyl)piperazin-1-yl)sulfonyl)phenyl)amino)(phenyl)methylene)-5-methyl-2-oxoindoline-6-carboxylate, formate] | 96.2 | 10.3 | 45 | 84.4 | 91.6 | 57.6 | 18.1 | 
COC(=O)c1cc2c(cc1C)/C(=C(/Nc1ccc(C(=O)N3CCC(O)(CN4CCCC4)CC3)cc1)c1ccccc1)C(=O)N2 [Example 37, (Z)-Methyl-3-(((4-(4-hydroxy-4-(pyrrolidin-1-ylmethyl)piperidine-1-carbonyl)phenyl)amino)(phenyl)methylene)-5-methyl-2-oxoindoline-6-carboxylate, formate] | 68.2 | 0.0542 | 7.54 | 93.6 | 83.4 | 18.4 | 5.28 | 
COC(=O)c1cc2c(cc1C)/C(=C(/Nc1ccc(C(=O)N(CCO)CCN(C)C)cc1)c1ccccc1)C(=O)N2 [Example 32, (Z)-Methyl 3-(((4-((2-(dimethylamino)ethyl)(2-hydroxyethyl)carbamoyl)phenyl)amino)(phenyl)methylene)-5-methyl-2-oxoindoline-6-carboxylate, 0.3 formate] | 59.6 | 0.0217 | 5.02 | 99.3 | 129.3 | 49.4 | 4.53 | 
COC(=O)c1cc2c(cc1C)/C(=C(/Nc1ccc(C(=O)NCCN3CCN(C)CC3)cc1)c1ccccc1)C(=O)N2 [Example 4, (Z)-Methyl 5-methyl-3-(((4-((2-(4-methylpiperazin-1-yl)ethyl)carbamoyl)phenyl)amino)(phenyl)methylene)-2-oxoindoline-6-carboxylate] | 76 | 0.0216 | 11.6 |  |  |  | 14 | concentration at 0.1 h ([3]; iv): 959 nM; concentration at 1.5 h ([3]; iv): 641 nM; concentration at 6 h ([3]; iv): 156 nM; concentration at 24 h ([3]; iv): 88 nM; concentration at 0.1 h ([3]; other: intra-tracheal): 3490 nM; concentration at 1.5 h ([3]; other: intra-tracheal): 1210 nM; concentration at 6 h ([3]; other: intra-tracheal): 475 nM; concentration at 24 h ([3]; other: intra-tracheal): 370 nM; BAL % administered dose at time 0.1 h [3, 5]: 3.4%; BAL % administered dose at time 1.5 h [3, 5]: 0.4%; BAL % administered dose at time 6 h [3, 5]: 0.4%; BAL % administered dose at time 24 h [3, 5]: 0.3%; BAL % administered dose at time 0.1 h [3, 6]: 0.07%; BAL % administered dose at time 1.5 h [3, 6]: 0.04%; BAL % administered dose at time 6 h [3, 6]: BQL; BAL % administered dose at time 24 h [3, 6]: BQL
COC(=O)c1cc2c(cc1C)/C(=C(/Nc1ccc(C(=O)N3CCCN(CCO)CC3)cc1)c1ccccc1)C(=O)N2 [Example 46, (Z)-Methyl-3-(((4-(4-(2-hydroxyethyl)-1,4-diazepane-1-carbonyl)phenyl)amino)(phenyl)methylene)-5-methyl-2-oxoindoline-6-carboxylate] |  |  | 6.65 | 87 | 80.2 | 18.2 | 2.49 | 
CNC(=O)CN(C)CCNC(=O)c1ccc(N/C(=C2\C(=O)Nc3cc(C(=O)OC)c(C)cc32)c2ccccc2)cc1 [Example 54, (Z)-Methyl 5-methyl-3-(((4-((2-(methyl(2-(methylamino)-2-oxoethyl)amino)ethyl)carbamoyl)phenyl)amino)(phenyl)methylene)-2-oxoindoline-6-carboxylate] |  |  | 15.8 | 110.2 | 105.5 | 92.4 | 5.04 | 
COC(=O)c1cc2c(cc1C)/C(=C(/Nc1ccc(C(=O)NCCN(C)C)cc1)c1ccccc1)C(=O)N2 [Example 2, (Z)-Methyl 3-(((4-((2-(dimethylamino)ethyl)carbamoyl)phenyl)amino)(phenyl)methylene)-5-methyl-2-oxoindoline-6-carboxylate, formate] |  |  |  | 94 | 91 | 68.5 | 36.7 | Ki (PDGFRβ [1]): 11.1 nM

Reference: US10669235B2, “Indole derivatives and their use as protein kinase inhibitors” (RESPIVERT LIMITED, priority 2016, dated 2020)
